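Each compound was tested at five concentrations against cells in 96-well plates for 48 hours. The concentration for 50% growth inhibition is given as GI50.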 Calls of active or inactive are those of the source. No stated cut-off is given here; in the data, active = GI50 up to about 1.1 µM and inactive = higher.
Columns and labels:
Assay in all cases: inhibition of tumour cell growth, NCI panel, 48 h
786-0 = tested on: 786-0
A498 = tested on: A498
EKVX = tested on: EKVX
Hs-578T = tested on: Hs-578T
MCF7 = tested on: MCF7
MOLT-4 = tested on: MOLT-4
NCI-H460 = tested on: NCI-H460
NCI-H522 = tested on: NCI-H522
NCI/ADR-RES = tested on: NCI/ADR-RES
PC-3 = tested on: PC-3
RXF 393 = tested on: RXF 393
SF-268 = tested on: SF-268
SK-MEL-2 = tested on: SK-MEL-2
SK-OV-3 = tested on: SK-OV-3
SNB-19 = tested on: SNB-19
SR = tested on: SR
T47D = tested on: T47D
U-251 = tested on: U-251
UACC-257 = tested on: UACC-257
UO-31 = tested on: UO-31

Compound	GI50 (786-0)	GI50 (A498)	GI50 (EKVX)	GI50 (Hs-578T)	GI50 (MCF7)	GI50 (MOLT-4)	GI50 (NCI-H460)	GI50 (NCI-H522)	GI50 (NCI/ADR-RES)	GI50 (PC-3)	GI50 (RXF 393)	GI50 (SF-268)	GI50 (SK-MEL-2)	GI50 (SK-OV-3)	GI50 (SNB-19)	GI50 (SR)	GI50 (T47D)	GI50 (U-251)	GI50 (UACC-257)	GI50 (UO-31)
O=C1OC(c2ccccc2)=N/C1=C\c1ccc([N+](=O)[O-])cc1	26.9 µM (inactive)	35.4 µM (inactive)	36 µM (inactive)	24.1 µM (inactive)	60 µM (inactive)	15.1 µM (inactive)	> 100 µM (inactive)	9.57 µM (inactive)	8.97 µM (inactive)	> 100 µM (inactive)	32.9 µM (inactive)	32.8 µM (inactive)	27.4 µM (inactive)	34.7 µM (inactive)	40.6 µM (inactive)	2.35 µM (inactive)	22.3 µM (inactive)	19.7 µM (inactive)	> 100 µM (inactive)	50.7 µM (inactive)
CCc1nnc(S)n1/N=C\c1ccc(-c2ccccc2Cl)o1	30.8 µM (inactive)	36.6 µM (inactive)	36.4 µM (inactive)	57 µM (inactive)	32 µM (inactive)	17.5 µM (inactive)	32.4 µM (inactive)	24.1 µM (inactive)	22 µM (inactive)	37.4 µM (inactive)	38.9 µM (inactive)	32.1 µM (inactive)	30.8 µM (inactive)	56.9 µM (inactive)	45.3 µM (inactive)	19.6 µM (inactive)	25.1 µM (inactive)	32.3 µM (inactive)	53.5 µM (inactive)	37.7 µM (inactive)
CCCCCOC(=O)c1cc2cc(CCl)ccc2oc1=O	3.02 µM (inactive)	2.44 µM (inactive)	3.37 µM (inactive)	7.23 µM (inactive)	10.4 µM (inactive)	7.33 µM (inactive)	17.2 µM (inactive)	0.213 µM (active)	17.3 µM (inactive)	4.07 µM (inactive)	2.18 µM (inactive)	13.2 µM (inactive)	0.466 µM (active)	16.9 µM (inactive)	18.7 µM (inactive)	8.07 µM (inactive)	4.55 µM (inactive)	16.8 µM (inactive)	1.09 µM (active)	2.06 µM (inactive)
CCOC(=O)c1c(N/C(S)=N/c2ccccc2)sc2c1CCOC2	> 100 µM (inactive)	37 µM (inactive)	79.6 µM (inactive)	67.3 µM (inactive)	33 µM (inactive)	69.5 µM (inactive)	40.2 µM (inactive)	64.9 µM (inactive)	60.4 µM (inactive)	61.2 µM (inactive)	69.2 µM (inactive)	64.1 µM (inactive)	74.6 µM (inactive)	85.9 µM (inactive)	> 100 µM (inactive)	53.5 µM (inactive)	24 µM (inactive)	> 100 µM (inactive)	64 µM (inactive)	45.9 µM (inactive)

From ChEMBL document CHEMBL1201862, “PubChem BioAssay data set” (2004)
